Marks after values point to notes of the source that are not given here.
Tests used:
Type in all cases: in vivo
Botrytis cinerea = test: Test A: tomato Botrytis, spray on tomato seedlings the day before inoculation
Description: General protocol for preparing test suspensions for Tests A-I: the test compounds were first dissolved in acetone in an amount equal to 3% of the final volume and then suspended at the desired concentration (in ppm) in acetone and purified water (50/50 mix by volume) containing 250 ppm of the surfactant Trem® 014 (polyhydric alcohol esters). The resulting test suspensions were then used in Tests A-I. Spraying a 200 ppm test suspension to the point of run-off on the test plants was the equivalent of a rate of 500 g/ha. […] (An asterisk “*” next to the rating value indicates a 40 ppm test suspension was used.) The test suspension was sprayed to the point of run-off on tomato seedlings. The following day, the seedlings were inoculated with a spore suspension of Botrytis cinerea (the causal agent of tomato Botrytis) and incubated in a saturated atmosphere at 20° C. for 48 h, and then moved to a growth chamber at 24° C. for 3 additional days, after which time visual disease ratings were made. […] A dash (-) indicates no test results. All results are for 200 ppm except where followed by an asterisk “*”, which indicates a 40 ppm.

Alternaria solani = test: Test B: tomato early blight, spray on tomato seedlings the day before inoculation
Description: General protocol for preparing test suspensions for Tests A-I: the test compounds were first dissolved in acetone in an amount equal to 3% of the final volume and then suspended at the desired concentration (in ppm) in acetone and purified water (50/50 mix by volume) containing 250 ppm of the surfactant Trem® 014 (polyhydric alcohol esters). The resulting test suspensions were then used in Tests A-I. Spraying a 200 ppm test suspension to the point of run-off on the test plants was the equivalent of a rate of 500 g/ha. […] (An asterisk “*” next to the rating value indicates a 40 ppm test suspension was used.) The test suspension was sprayed to the point of run-off on tomato seedlings. The following day, the seedlings were inoculated with a spore suspension of Alternaria solani (the causal agent of tomato early blight) and incubated in a saturated atmosphere at 27° C. for 48 h, and then moved to a growth chamber at 20° C. for 5 days, after which time visual disease ratings were made. […] A dash (-) indicates no test results. All results are for 200 ppm except where followed by an asterisk “*”, which indicates a 40 ppm.

Septoria nodorum = test: Test E: Septoria glume blotch, spray on wheat seedlings the day before inoculation
Description: General protocol for preparing test suspensions for Tests A-I: the test compounds were first dissolved in acetone in an amount equal to 3% of the final volume and then suspended at the desired concentration (in ppm) in acetone and purified water (50/50 mix by volume) containing 250 ppm of the surfactant Trem® 014 (polyhydric alcohol esters). The resulting test suspensions were then used in Tests A-I. Spraying a 200 ppm test suspension to the point of run-off on the test plants was the equivalent of a rate of 500 g/ha. […] (An asterisk “*” next to the rating value indicates a 40 ppm test suspension was used.) The test suspension was sprayed to the point of run-off on wheat seedlings. […] A dash (-) indicates no test results. All results are for 200 ppm except where followed by an asterisk “*”, which indicates a 40 ppm.

Septoria tritici = test: Test F: wheat leaf blotch, spray on wheat seedlings the day before inoculation
Description: General protocol for preparing test suspensions for Tests A-I: the test compounds were first dissolved in acetone in an amount equal to 3% of the final volume and then suspended at the desired concentration (in ppm) in acetone and purified water (50/50 mix by volume) containing 250 ppm of the surfactant Trem® 014 (polyhydric alcohol esters). The resulting test suspensions were then used in Tests A-I. Spraying a 200 ppm test suspension to the point of run-off on the test plants was the equivalent of a rate of 500 g/ha. […] (An asterisk “*” next to the rating value indicates a 40 ppm test suspension was used.) The test suspension was sprayed to the point of run-off on wheat seedlings. The following day, the seedlings were inoculated with a spore suspension of Septoria tritici (the causal agent of wheat leaf blotch) and incubated in a saturated atmosphere at 24° C. for 48 h, and then the seedlings were moved to a growth chamber at 20° C. for 19 additional days, after which time visual disease ratings were made. […] A dash (-) indicates no test results. All results are for 200 ppm except where followed by an asterisk “*”, which indicates a 40 ppm.

[1] = test system: Puccinia recondita f. sp. tritici; test: Test G: wheat leaf rust, spray on wheat seedlings after inoculation (curative); settings: sprayed after inoculation
Description: General protocol for preparing test suspensions for Tests A-I: the test compounds were first dissolved in acetone in an amount equal to 3% of the final volume and then suspended at the desired concentration (in ppm) in acetone and purified water (50/50 mix by volume) containing 250 ppm of the surfactant Trem® 014 (polyhydric alcohol esters). The resulting test suspensions were then used in Tests A-I. Spraying a 200 ppm test suspension to the point of run-off on the test plants was the equivalent of a rate of 500 g/ha. […] (An asterisk “*” next to the rating value indicates a 40 ppm test suspension was used.) Wheat seedlings were inoculated with a spore suspension of Puccinia recondita f. sp. tritici (the causal agent of wheat leaf rust) and incubated in a saturated atmosphere at 20° C. for 24 h, and then moved to a growth chamber at 20° C. for 2 days. At the end of this time, the test suspension was sprayed to the point of run-off, and then the seedlings were moved to a growth chamber at 20° C. for 4 days after which time visual disease ratings were made. […] A dash (-) indicates no test results. All results are for 200 ppm except where followed by an asterisk “*”, which indicates a 40 ppm.

[2] = test system: Puccinia recondita f. sp. tritici; test: Test H: wheat leaf rust, spray on wheat seedlings the day before inoculation; settings: sprayed before inoculation
Description: General protocol for preparing test suspensions for Tests A-I: the test compounds were first dissolved in acetone in an amount equal to 3% of the final volume and then suspended at the desired concentration (in ppm) in acetone and purified water (50/50 mix by volume) containing 250 ppm of the surfactant Trem® 014 (polyhydric alcohol esters). The resulting test suspensions were then used in Tests A-I. Spraying a 200 ppm test suspension to the point of run-off on the test plants was the equivalent of a rate of 500 g/ha. […] (An asterisk “*” next to the rating value indicates a 40 ppm test suspension was used.) The test suspension was sprayed to the point of run-off on wheat seedlings. The following day, the seedlings were inoculated with a spore suspension of Puccinia recondita f. sp. tritici (the causal agent of wheat leaf rust) and incubated in a saturated atmosphere at 20° C. for 24 h, and then moved to a growth chamber at 20° C. for 6 days, after which time visual disease ratings were made Results for Tests A-I are given in Table A. […] A dash (-) indicates no test results. All results are for 200 ppm except where followed by an asterisk “*”, which indicates a 40 ppm.

[3] = test system: Erysiphe graminis f. sp. tritici; test: Test I: wheat powdery mildew, spray on wheat seedlings the day before inoculation; settings: 200 ppm test suspension
Description: General protocol for preparing test suspensions for Tests A-I: the test compounds were first dissolved in acetone in an amount equal to 3% of the final volume and then suspended at the desired concentration (in ppm) in acetone and purified water (50/50 mix by volume) containing 250 ppm of the surfactant Trem® 014 (polyhydric alcohol esters). The resulting test suspensions were then used in Tests A-I. Spraying a 200 ppm test suspension to the point of run-off on the test plants was the equivalent of a rate of 500 g/ha. […] (An asterisk “*” next to the rating value indicates a 40 ppm test suspension was used.) The test suspension was sprayed to the point of run-off on wheat seedlings. The following day, the seedlings were inoculated with a spore dust of Erysiphe graminis f. sp. tritici, (the causal agent of wheat powdery mildew) and incubated in a growth chamber at 20° C. for 7 days, after which time visual disease ratings were made. […] A dash (-) indicates no test results. All results are for 200 ppm except where followed by an asterisk “*”, which indicates a 40 ppm.

[4] = 40 ppm test suspension (asterisk)

SMILES | Test I rating (100 = 100% disease control, 0 = no disease control) [3] | Test A rating (100 = 100% disease control, 0 = no disease control) (Botrytis cinerea; 200 ppm test suspension) | Test B rating (100 = 100% disease control, 0 = no disease control) (Alternaria solani; 200 ppm test suspension) | Test E rating (100 = 100% disease control, 0 = no disease control) (Septoria nodorum; 200 ppm test suspension) | Test F rating (100 = 100% disease control, 0 = no disease control) (Septoria tritici; 200 ppm test suspension) | Test G rating (100 = 100% disease control, 0 = no disease control) ([1]; 200 ppm test suspension) | Test H rating (100 = 100% disease control, 0 = no disease control) ([2]; 200 ppm test suspension) | also measured
COc1cc(OC)cc(-c2c(-c3c(F)cc(OC)cc3F)c(C)oc(=O)c2-c2ccccc2F)c1 [Compound 39] | 79% | – | – | – | – | – | – | Test A rating (100 = 100% disease control, 0 = no disease control) (Botrytis cinerea; [4]): 100* %; Test B rating (100 = 100% disease control, 0 = no disease control) (Alternaria solani; [4]): 100* %; Test E rating (100 = 100% disease control, 0 = no disease control) (Septoria nodorum; [4]): 100* %; Test F rating (100 = 100% disease control, 0 = no disease control) (Septoria tritici; [4]): 100* %; Test G rating (100 = 100% disease control, 0 = no disease control) [1, 4]: 82* %; Test H rating (100 = 100% disease control, 0 = no disease control) [2, 4]: 100* %
COc1cc(OC)c(Cl)c(-c2c(-c3c(F)cccc3F)c(C)oc(=O)c2C)c1Cl [Compound 53] | 0% | 61% | 0% | 0% | 47% | 0% | 88% | –
Cc1oc(=O)c(C)c(-c2ccc(F)cc2F)c1Br [Compound 41, 5-bromo-4-(2,4-difluorophenyl)-3,6-dimethyl-2H-pyran-2-one] | – | – | – | – | – | – | – | pest or weed control at 200 ppm (Botrytis cinerea; Botrytis cinerea, 120 h, 200 ppm test suspension, read-out: Test A rating (100 = 100% disease control, 0 = no disease control)): 67%; pest or weed control at 200 ppm (Alternaria solani; Alternaria solani, 168 h, 200 ppm test suspension, read-out: Test B rating (100 = 100% disease control, 0 = no disease control)): 0%; pest or weed control at 200 ppm (Septoria nodorum; Parastagonospora nodorum, 264 h, 200 ppm test suspension, read-out: Test E rating (100 = 100% disease control, 0 = no disease control)): 0%; pest or weed control at 200 ppm (Septoria tritici; Zymoseptoria tritici, 504 h, 200 ppm test suspension, read-out: Test F rating (100 = 100% disease control, 0 = no disease control)): 0%; pest or weed control at 200 ppm ([1]; Puccinia recondita, 96 h, 200 ppm test suspension, read-out: Test G rating (100 = 100% disease control, 0 = no disease control)): 0%; pest or weed control at 200 ppm ([2]; Puccinia recondita, 168 h, 200 ppm test suspension, read-out: Test H rating (100 = 100% disease control, 0 = no disease control)): 0%; pest or weed control at 200 ppm ([3]; Blumeria graminis, 168 h, read-out: Test I rating (100 = 100% disease control, 0 = no disease control)): 0%
Cc1oc(=O)c(-c2ccccc2)c(-c2ccccc2Cl)c1-c1ccc(F)cc1F [Compound 31] | 0% | – | – | – | – | – | – | Test A rating (100 = 100% disease control, 0 = no disease control) (Botrytis cinerea; [4]): 100* %; Test B rating (100 = 100% disease control, 0 = no disease control) (Alternaria solani; [4]): 0* %; Test E rating (100 = 100% disease control, 0 = no disease control) (Septoria nodorum; [4]): 0* %; Test F rating (100 = 100% disease control, 0 = no disease control) (Septoria tritici; [4]): 98* %; Test G rating (100 = 100% disease control, 0 = no disease control) [1, 4]: 96* %; Test H rating (100 = 100% disease control, 0 = no disease control) [2, 4]: 99* %
COc1cc(OC)cc(-c2c(-c3ccccc3F)c(C)oc(=O)c2-c2ccccc2)c1 [Compound 26] | 27% | 99% | 93% | 0% | 95% | 9% | 100% | –
COc1cc(OC)cc(-c2c(-c3ccc(F)cc3Cl)c(C)oc(=O)c2C)c1 [Compound 46] | 99% | 100% | 98% | 95% | 100% | 79% | 100% | –
COc1cc(OC)cc(-c2c(C)noc(=O)c2-c2c(F)cc(F)cc2F)c1 [Compound 24] | 99% | 98% | 63% | 0% | 99% | 0% | – | –
COc1cc(OC)cc(-c2c(-c3ccccc3F)c(C)oc(=O)c2C)c1 [Compound 60] | 98% | – | 26% | 0% | 100% | 96% | 100% | –
COc1cc(OC)c(Cl)c(-c2c(-c3c(F)cc(F)cc3F)c(C)oc(=O)c2C)c1Cl [Compound 59] | 90% | 100% | 0% | 0% | – | 82% | 100% | –

From patent publication US20120329787A1, “FUNGICIDAL PYRANONES AND OXAZINONES” (E.I. DU PONT DE NEMOURS AND COMPANY, priority 2011, published 2012)
